Patent US20120094939A1, “ANTI-VIRAL COMPOUNDS, COMPOSITIONS AND METHODS” (priority 2007, published 2012)

Key:
[1] = tested on: Huh7/Rep-Feo HCV replicon (HCV RNA replication); assay type: cell-based, Hepatitis C virus (strain HCV—N, genotype 1b); details: Table 2 antiviral hits of DOS set; approximately 10-50 μM, most at 33 μM; 48 hours
From the text: Development of the Huh7/Rep-Feo replicon assay. […] This replicon was derived from a chimpanzee infectious clone (strain HCV—N, genotype 1b). In this replicon, the structural genes have been replaced by a reporter gene. The chimeric reporter gene Feo encodes the firefly luciferase protein fused in-frame with neomycin phosphotransferase. This Huh7/Rep-Feo cell supports high levels of autonomous HCV RNA replication because it was derived from the HCV—N strain, which carries an adaptive mutation in NSSA that confers highlevel replication in tissue culture. Furthermore, the level of luciferase correlates well with levels of HCV RNA production, so that luciferase can be used as a reliable surrogate marker for HCV replication. The use of luciferase as a reporter permits quantitative and highthroughput detection of HCV replication levels. The specific use of firefly luciferase makes this replicon especially well-suited for automation, because the luciferase reagent can be added directly to the cell culture system prior to signal detection without the need for cell lysis, washing, or aspiration.
HCV Replicon System-Primary Screening. […] Briefly, this replicon harbors a subgenomic HCV genotype 1b sequence, fused to firefly luciferase, stably replicating under neomycin selection. Cells were propagated in Dulbecco's Modified Eagle's medium (DMEM) containing 10% fetal bovine serum (FBS) supplemented with 1% penicillin-streptomycin, and 500 μg of Geneticin (Invitrogen Corp., Carlsbad, Calif.)/mL. Cells were cultured in a 37° C., 5% CO2-humidified incubator for all experiments. To decrease day-today variability in the assay, a large homogenous population of subconfluent cells was passaged so that a similar lot of cells could be used throughout the HTS assay.
(§1) Primary Screening-HTS. Information about the library of known bioactive compounds that was screened and the general automated HTS protocol is available at http://www.broad.harvard.edu/chembio/index.html (see FIG. 10 for list of primary HTS with known bioactives library). Based on the results of optimization experiments in the 384-well plate format, the general HTS protocol was adapted as follows. Unless otherwise indicated, cells were incubated at all times in a humidified environment with 5% CO2 at 37° C. The assay was initiated by plating 30 μL of medium containing 2000 cells/well into white 384-well opaque-bottom plates (Nunc, Rochester, N.Y.) using an automated plate filler (Bio-Tek uFiller; Winsooki, Vt.) and allowing the cells to adhere for 24 hours. One hundred nL of compound stock solutions in DMSO was transferred from stock plates into the 384-well assay plates using an automated pin-based compound transfer robot (CyBio CyBi-Well vario; Woburn, Mass.). The final compound concentration in each well was estimated to be approximately 10-50 μM, with most compounds at 33 μM. The wells contained 0.33% DMSO by volume. The cells were then incubated for another 48 hours. The luminescent signal from each plate was detected using an automated plate reader (Perkin-Elmer Envision 1; Wellesley, Mass.). This screen was performed in duplicate. For negative controls, entire DMSO-treated control plates were employed, in addition to DMSO-only control wells that were incorporated into each compound assay plate. The cells were assayed for luciferase activity using the Bright-Glo Luciferase assay system (Promega), following the manufacturer's instructions. As a counter-screen, cell viability was assessed using the CellTiterGlo Luminescent cell viability assay (Promega) following the manufacturer's instructions.
Computational Data Analysis-Primary Screening. For each replicate, a mock-treatment distribution based on the total population of mock (DMSO) controls in that replicate was built (FIG. 11).

Huh7/Rep-Feo cells = assay: Primary HTS cell viability counter-screen (CellTiterGlo); assay type: cell-based, human; details: Table 2 antiviral hits of DOS set; approximately 10-50 μM, most at 33 μM; 48 hours
Protocol: as §1
Computational Data Analysis-Primary Screening. For each replicate, a mock-treatment distribution based on the total population of mock (DMSO) controls in that replicate was built (FIG. 11). Each compound was independently assigned a sign (ie, “+” or “−”) Z-score. Z-scores are calculated by dividing each background-subtracted, compound-treated well by the global standard deviation. A global standard deviation of the background-subtracted, mock-treated wells is calculated over the entire experiment. This distribution was determined to be consistent with experimental noise observed under cell-based assay conditions. The resulting collection of continuousvalued Z-scores represents the primary data set to be used for further analysis. The composite Z-score was calculated as a vector projection of each Z-score in duplicate onto an imaginary line of perfect reproducibility. Reproducibility is the cosine of the angle between each Z-score and that imaginary line; it is dimensionless and ranges from −1 to +1. […] The primary data were analyzed using the commercial software packages Pipeline Pilot (SciTegic, San Diego, Calif.) and SpotFire (SpotFire, Inc., Somerville, Mass.). The means of the negative, DMSO-only controls were considered the zero point.
Primary Screening—HTS: Unless otherwise indicated, cells were incubated at all times in a humidified environment with 5% CO2 at 37° C. The assay was initiated by plating 30 μl of medium containing 2,000 cells/well into white 384-well opaque-bottom plates (Nunc; Rochester, N.Y.) using an automated plate filler (Bio-Tek μFiller; Winsooki, Vt.) and allowing the cells to adhere for 24 hours. 100 nl of compound stock solutions in DMSO were transferred from stock plates into the 384-well assay plates using an automated pin-based compound transfer robot (CyBio CyBi-Well vario; Woburn, Mass.). The final compound concentration in each well was estimated to be approximately 10-50 μM, with most compounds at 33 μM. The wells contained 0.33% DMSO by volume. The cells were then incubated for another 48 hours. […]

OR6 cells = assay: Secondary assay cell viability (CellTiter-Glo); details: 48 hours
Protocol: Secondary Assays-Hit Validation. Several hits from primary HTS, as well as functionally related compounds, were purchased from Sigma (St. Louis, Mo.), Calbiochem (San Diego, Calif.), and Microsource (Gaylordsville, Conn.). […] Ten mM of stock solutions of the individual compounds to be tested was prepared in the appropriate solvent (DMSO, ethanol, or H2O, according to the manufacturer's information) and stored at −20° C. Cells were seeded into 96-well plates at a density of 2000 cells/well in 100 μL of medium. The cells were incubated for 24 hours at 37° C. to obtain the optimal level of adherence. Solutions of candidate hit compounds were added to wells to achieve final concentrations of 0.1, 1, 10, 50, and 100 μM. The final concentration of DMSO or ethanol in every well was 1% or less by volume. Mock solutions were used as a negative control. PEG-IFN and ribavirin were used as positive controls at various concentrations, alone and in combination. The plates were then incubated at 37° C. with 5% CO2 for 48 hours before they were analyzed. Luminescent signal was generated using the Renilla luciferase assay kit (Promega) according to the manufacturer's instructions. Signal was then detected using a LumiCount (Packard BioScience Company) luminometer. Cell viability was assessed using CellTiter-Glo (Promega), following the manufacturer's instructions. All experiments were performed in triplicate.
Secondary Assays-Data Analysis. Values were presented as a percentage of mock treated control, which was arbitrarily set at 100%. Data were expressed as the mean (±) SD. […] Synergy calculations were performed using CalcuSyn (Biosoft; Cambridge, England).
Secondary Assays—Hit Validation: 10 mM of stock solutions of the individual compounds to be tested were prepared in DMSO and stored at −20° C. Cells were seeded into 96-well plates at a density of 2,000 cells/well in 100 μl of medium. The cells were incubated for 24 hours at 37° C. to obtain the optimal level of adherence. Solutions of candidate hit compounds were added to wells to achieve varying final concentrations between 0.01 and 100 μM. The final concentration of DMSO or ethanol in every well was 1% or less by volume. Mock solutions were used as a negative control. Peginterferon-alfa-2b (PEG-Intron; Schering Corp.; Kenilworth, N.J.) and ribavirin (Sigma; St. Louis, Mo.) were used as positive controls at various concentrations, alone and in combination. The plates were then incubated at 37° C. with 5% CO2 for 48 hours before they were analyzed. Luminescent signal was generated using the Renilla luciferase assay kit (Promega; Madison, Wis.) according to the manufacturer's instructions. Signal was then detected using a LumiCount™ (Packard BioScience Company; Downers Grove, Ill.) luminometer. Cell viability was assessed using CellTiter-Glo (Promega; Madison, Wis.), following the manufacturer's instructions. All experiments were performed in triplicate. Values were presented as a percentage of mock treated control, which was arbitrarily set at 100%. Data were expressed as the mean±SD.
Secondary Assays—Data Analysis: Values were presented as a percentage of mock treated control, which was arbitrarily set at 100%. Data were expressed as the mean±SD.

Compound | R-CompZ, compositeZ score for reporter gene assay [1] | C-CompZ, compositeZ score for cell viability assay (Huh7/Rep-Feo cells) | concentrations at which cytotoxic effects were exhibited (OR6 cells) [µM] | cytotoxicity (in words) (OR6 cells)
O=c1n(-c2ccccc2)c(=O)n2n1CC[C@@H]1/C(=N/OC[C@@H](O)COCc3ccco3)[C@H]3O[C@H]3[C@@H](O)[C@@H]12 [BUCMLD-B10A8] | −3.7511 | 1.1582 | – | –
C[C@H](O/N=C1/[C@H]2CCn3c(=O)n(-c4ccccc4)c(=O)n3[C@H]2[C@H](O)[C@@H]2O[C@H]12)c1cn([C@H](CO)Cc2ccccc2)nn1 [BUCMLD-B10A10] | −2.7028 | 1.9213 | – | –
CC(=O)OC[C@H]1O[C@@H](O/N=C2/[C@H]3CCn4c(=O)n(-c5ccccc5)c(=O)n4[C@H]3[C@H](O)[C@@H]3O[C@H]23)[C@H](OC(C)=O)[C@@H](OC(C)=O)[C@@H]1OC(C)=O [BUCMLD-B10A13] | −2.8629 | 1.0278 | – | –
C[C@@H](O/N=C1/[C@H]2CCn3c(=O)n(-c4ccccc4)c(=O)n3[C@H]2[C@H](O)[C@@H]2O[C@H]12)c1cn([C@H](CO)Cc2ccccc2)nn1 [BUCMLD-B10A14] | −3.5069 | 1.128 | – | –
COc1ccc(O[C@H]2C=C[C@@H](c3ccccc3)O[C@@H]2CO/N=C(\C)CCN2CCc3nc(-c4ccccc4)c(-c4ccccc4)cc3C2)cc1 [BUCMLD-B13A1] | −3.1824 | −0.2035 | – | –
C#CCCCO/N=C1/[C@H]2CCn3c(=O)n(-c4ccccc4)c(=O)n3[C@H]2[C@H](O)[C@@H]2O[C@H]12 [BUCMLD-XL-184] | −3.0142 | −0.1464 | – | –
C#CCCCO/N=C1/[C@H]2CCn3c(=O)n([C@@H](CC)c4ccccc4)c(=O)n3[C@H]2[C@H](O)[C@@H]2O[C@H]12 [BUCMLD-XL-189] | −3.4882 | 0.2217 | – | –
CC[C@@H](c1ccccc1)n1c(=O)n2n(c1=O)[C@H]1[C@H](O)[C@@H]3O[C@@H]3/C(=N\OC[C@@H](O)COCc3ccco3)[C@H]1CC2 [BUCMLD-XL-190] | −2.5928 | 0.4558 | – | –
O=C1C2C=C(Br)C(CC2OCCCCCCO)[C@@]12CO2 (stereo partly drawn) [SM_A1B2_1P32] | −3.252 | 0.9925 | – | –
O=C1C2C=C(Br)C(CC2c2ccccc2)[C@@]12CO2 (stereo partly drawn) [SM_A1B5_2P24] | −3.38 | −0.856 | – | –
COC12C=C(Br)C(CC1c1cccc(C)c1)[C@@]1(CO1)C2=O (stereo partly drawn) [SM_A4B6_2P123] | −3.4419 | −0.795 | – | –
O=C1C2C=C(I)C(CC2OCCCCCCO)[C@@]12CO2 (stereo partly drawn) [SM_A5B2_2P142] | −2.7176 | 0.5666 | – | –
O=C1C2C=C(I)C(CC2c2ccccc2)[C@@]12CO2 (stereo partly drawn) [SM_A5B5_2P118] | −3.6565 | −0.4963 | – | –
C[C@@]12COC[C@]13C=C(Br)C(C2)[C@@]1(CO1)C3=O [SM_A7C2_2P155] | −2.6813 | 0.6028 | – | –
Cc1c(C)c2c(c(C)c1O)CCC(C)(COc1ccc(CC3SC(=O)NC3=O)cc1)O2 (stereo not drawn) [Troglitazone, troglitazone] | – | – | ≥ 50 | –
COc1ccc2cc1Oc1ccc(cc1)C[C@H]1c3cc(c(OC)cc3CCN1C)Oc1c(OC)c(OC)cc3c1[C@H](C2)N(C)CC3 [tetrandrine] | – | – | – | cytotoxicity
